Reference: patent US20230107216A1, “PANTETHEINE DERIVATIVES AND USES THEREOF” (Comet Therapeutics, Inc., priority 2018, published 2023)

Legend:
[1] = system: Subnormal activation of pyruvate dehydrogenase complex (PDH) primary fibroblasts GM01503; assay: NADP+/NADPH (NADP/NADPH-Glo), PDH fibroblasts GM01503; format: cell-based; details: Homo sapiens, Fibroblast, PDH GM01503 P10, assay condition A (10 mM glucose, 2 mM L-glutamine, 1 mM pyruvate, 10% FBS), 24h, read-out: Increase in Total NADP+ + NADPH
Experimental: Primary adherent fibroblasts were cultured in minimum essential medium (MEM) (Gibco, 25030081) supplemented with 2 mM L-Glutamine (Gibco, 25030081), 15% fetal bovine serum (FBS) (Gibco, 26400044) and 1% penicillin/streptomycin (Gibco, 5140122) at 37° C. and 5% CO2. Cells were collected for either passaging or experiment at ˜70-80% confluence. Cells were obtained by trypsinization and seeded in cell culture microplates either white plate (Thermo Fisher Scientific, 152028) for luminescent measurement or black plate (Thermo Fisher Scientific, 165305) for fluorescent based read out for different assays listed below. Cells were obtained by trypsinization and […] were seeded and allowed to adhere for 16-18 hours to have confluency around 70-80% in the cell well with culture media. After 24 hours prior to measurements (37° C., 5% CO2) media was changed to Dulbecco's Modified Eagle Medium (DMEM, Agilent Seahorse cat #103575-100) with the appropriate supplements as stated below.
Primary fibroblasts assayed were Propionic Acidemia (PA) (GM03590 Coriell Institute for Medical Research, Tsi 6337 Trans-Hit Bio), Methylmalonic Acidemia (MMA) (Tsi 5224 Trans-Hit Bio), Subnormal activation of pyruvate dehydrogenase complex (PDH) (GM01503 Coriell Institute for Medical Research), Very long-chain acyl-CoA dehydrogenase (VLCAD) (GM17475), Leigh Syndrome (LS) (GM03672, GM13411 Coriell Institute for Medical Research), Pyruvate Carboxylase Deficiency (PC) (GM00444 Coriell Institute for Medical Research). 10 μM of Compounds were added for 2 hours in PA, MMA lines and for 24h for the other fibroblast lines.
Assay was performed according to manufacturer instructions (NADP+/NADPH-Glo Assay Promega, G9082). Assay required a plate for total measurement of NADP+/NADPH and a plate for individual measurement of NADP+ or NADPH. For every assay a 12-point standard curve is prepared ranging from 400 nM to 0.625 nM. Media is removed and replaced with 50 μl of PBS for both assays.
For individual NADP+/NADPH measurements, 50 μl of 1% DTAB (Sigma, D5047) (cell lysis reagent) in 0.2N NaOH was added to the plates and 100 μl of lysate was split into two plates with 50 μl each from which ratio of NADP/NADPH can be calculated. 25 μl of 0.4N HCl were added to the NADP+ plates and both NADP+ and NADPH plates were heated at 60° C. for 15 minutes. The acid and heat treatment destroyed NADPH allowing individual NADP+ measurements while heating in basic conditions destroys NADP+ allowing individual NADPH measurement. After 15 minutes plates were allowed to come to room temperature and Trizma base (Sigma, T1699) was added to the NADP+ plates to neutralize the acid and HCl Trizma hydrochloride (Sigma, T2694) was added to the NADPH plates. The NADNADPH glo reagent was prepared by adding 125 μl of NAD cycling substrate, 125 μl of reductase, 125 μl of reductase substrate, 125 μl NAD cycling enzyme to a total of the 25 ml of NAD GLO reagent. 1:1 ratio of total volume of reagent was added to the individual NADP+, NADPH measurements (total 100 μl) and 50 μl were added for the total NAD/NADPH measurements. Luminescence was measured for 30-60 minutes within the linear range.
A total dead cell count was performed as described in Example 817 and only alive cells were used for analysis.

[2] = system: Dermal fibroblasts (HDF3CGF system); assay: BioMAP HDF3CGF system (IL-1β, TNFα, IFNγ, EGF, bFGF, PDGF-BB); format: cell-based, human; details: for activation at 10 µM: 72 h, read-out: % increase in 72 Hour Proliferation
[3] = system: primary fibroblasts GM00649, GM06225, GM00612, GM00444, GM03672; assay: MMP, ROS and ATP multiplex (ArrayScan); format: cell-based; details: Homo sapiens, Fibroblast, procedure Example 838, read-out: Decreased ROS by at least 10%; for inhibition at 50 µM: Leigh GM03672, 50 μM (table line r25)
Experimental: Cell culture and treatments. Primary adherent fibroblasts were cultured in minimum essential medium (MEM) (Gibco, 25030081) supplemented with 2 mM L-Glutamine (Gibco, 25030081), 15% fetal bovine serum (FBS) (Gibco, 26400044) and 1% penicillin/streptomycin (Gibco, 5140122) at 37° C. and 5% CO2. Cells were collected for either passaging or experiment at ˜70-80% confluence. Cells were obtained by trypsinization and seeded at 10000 cells/well in cell culture microplates (Seahorse Bioscience, 101085-004) and allowed to adhere for 16 hours in culture media. After media was refreshed with DMEM (Agilent Seahorse 103575-100) supplemented with 1 mM glucose and 10% FBS (Gibco, 26400044). At the end of the incubation period, the cells were loaded with the relevant dye/antibody for each cell health marker. The assay provided simultaneous measurement of cell health parameters including cell count, ROS formation (DHE), mitochondrial membrane potential (MitoTracker®) and cellular ATP content (CellTiter-Glo®, Promega). The plates were then scanned using an automated fluorescent cellular imager, ArrayScan® (Thermo Scientific Cellomics). Assay conditions were optimized by one skilled in the art.
Primary cells used in this example were obtained from Coriell Institute for Medical Research and consisted of GM00649, MSUD (Maple Syrup Urine Disease) Tyle IA; GM06225, Kearns-Sayre Syndrome; GM00612, MSUD (Maple Syrup Urine Disease) Tyle II GM00444, Pyruvate Carboxylase Deficiency and GM03672, Leigh Syndrome.

[4] = Homo sapiens, Fibroblast, 10 uM
[5] = 10 uM, procedure of Example 833
[6] = Homo sapiens, Fibroblast, 24 h, 10 uM, read-out: % decrease in Collagen III

For C[C@@H](O)CC(=O)CC(=O)SCCNC(=O)CCNC(=O)[C@H](O)C(C)(C)CO [Compound 42, (2R)-2,4-dihydroxy-N-[2-[(2-[[(5R)-5-hydroxy-3-oxohexanoyl]sulfanyl]ethyl)carbamoyl]ethyl]-3,3-dimethylbutanamide], the activation at 10 µM [1] was no less than 10%.
In the case of COC(=O)CCC(=O)SCCNC(=O)CCNC(=O)[C@H](OC(=O)CNC(C)=O)C(C)(C)CO [Compound 1298, methyl 4-[(2-[3-[(2R)-2-[(2-acetamidoacetyl)oxy]-4-hydroxy-3,3-dimethylbutanamido]propanamido]ethyl)sulfanyl]-4-oxobutanoate], the “% decrease in TIMP-1” value ([2]; 1 uM) is reported as no less than 10% and the “% decrease in TIMP-2” value ([2]; 1 uM) is reported as no less than 10%.
COC(=O)CCC(=O)SCCNC(=O)CCNC(=O)[C@H](O)C(C)(C)COC(C)=O [Compound 138] was tested, and the “% decrease in Collagen I” value ([2]; 1 uM, procedure of Example 833) was no less than 10%.
Compound CC(C)(CO)[C@@H](O)C(=O)NCCC(=O)NCCSC(=O)CCCO [Compound 1304, (2R)-2,4-dihydroxy-N-[2-([2-[(4-hydroxybutanoyl)sulfanyl]ethyl]carbamoyl)ethyl]-3,3-dimethylbutanamide] has an inhibition at 50 µM [3] of no less than 10% and an activation at 10 µM [1] of no less than 10%.
Compound COC(=O)CCC(=O)SCCNC(=O)CCNC(=O)[C@H](OC(=O)CN)C(C)(C)CO [Compound 1294, methyl 4-[(2-[3-[(2R)-2-[(2-aminoacetyl)oxy]-4-hydroxy-3,3-dimethylbutanamido]propanamido]ethyl)sulfanyl]-4-oxobutanoate] has an inhibition at 1 µM ([2]; Homo sapiens, Fibroblast, 24 h, 1 uM, read-out: % decrease in Collagen III) of no less than 10% and an activation at 10 µM [2, 4] of no less than 20%.
COC(=O)CC(C(C)=O)C(=O)SCCNC(=O)CCNC(=O)[C@H](O)C(C)(C)CO (stereo partly drawn) [Compound 410] showed an inhibition at 50 µM [3] of no less than 10% and an activation at 10 µM [1] of no less than 10%.
With CC(=O)SCCNC(=O)CCNC(=O)[C@H](O)C(C)(C)COC(=O)[C@H](C)N [Compound 502, (3R)-3-[(2-[[2-(acetylsulfanyl)ethyl]carbamoyl]ethyl)carbamoyl]-3-hydroxy-2,2-dimethylpropyl (2S)-2-aminopropanoate] the “% increase in SRB” value ([2]; 1 uM) was no less than 10% and the activation at 10 µM [1] was no less than 10%.
CC(O)C(C(=O)SCCNC(=O)CCNC(=O)[C@H](O)C(C)(C)CO)C(C)O (stereo partly drawn) [Compound 1285, (2R)-2,4-dihydroxy-N-[2-[(2-[[3-hydroxy-2-(1-hydroxyethyl)butanoyl]sulfanyl]ethyl)carbamoyl]ethyl]-3,3-dimethylbutanamide] gave an activation at 10 µM [1] of no less than 10%.
For C[C@@H](O)CC(=O)SCCNC(=O)CCNC(=O)[C@H](O)C(C)(C)CO [Compound 38, S-2-{3-[(R)-2,4-dihydroxy-3,3-dimethylbutyrylamino]propionylamino} ethyl (R)-3-hydroxybutanethioate], the activation at 10 µM [1] was no less than 10%.
With COC(=O)CC(SCCNC(=O)CCNC(=O)[C@H](O)C(C)(C)COC(C)=O)C(=O)OC (stereo partly drawn) [Compound 149, 1,4-dimethyl 2-[(2-[3-[(2R)-4-(acetyloxy)-2-hydroxy-3,3-dimethylbutanamido]propanamido]ethyl)sulfanyl]butanedioate] the “% increase in Collagen I” value ([2]; 1 uM, procedure of Example 833) was no less than 10%.
In the case of CC(C)(CO)[C@@H](O)C(=O)NCCC(=O)NCCSC(=O)[C@@H](N)Cc1ccc(O)c(O)c1 [Compound 371, (2R)—N-[2-[(2-[[(2S)-2-amino-3-(3,4-dihydroxyphenyl)propanoyl]sulfanyl]ethyl)carbamoyl]ethyl]-2,4-dihydroxy-3,3-dimethylbutanamide], the “% increase in PAI-I” value ([2]; 10 uM) is reported as no less than 10%, the “% decrease in Collagen I” value [2, 5] is reported as no less than 10% and the inhibition at 10 µM [2, 6] is reported as no less than 10%.
CCCCCCC(=O)SCCNC(=O)CCNC(=O)[C@H](O)C(C)(C)CO [Compound 372, (2R)—N-(2-[[2-(heptanoylsulfanyl)ethyl]carbamoyl]ethyl)-2,4-dihydroxy-3,3-dimethylbutanamide] was tested, and the “% increase in PAI-I” value ([2]; 10 uM) was no less than 10% and the inhibition at 10 µM [2, 6] was no less than 10%.
CC(C)(CO)[C@@H](O)C(=O)NCCC(=O)NCCSC(=O)CC(=O)CCC(=O)O [Compound 2, 6-[(2-[3-[(2R)-2,4-dihydroxy-3,3-dimethylbutanamido]propanamido]ethyl)sulfanyl]-4,6-dioxohexanoic acid] gave an inhibition at 50 µM [3] of no less than 10% and an inhibition at 5 µM ([3]; PC GM00444, 5 μM) of no less than 10%.
C[C@H](O)CC(=O)CC(=O)SCCNC(=O)CCNC(=O)[C@H](O)C(C)(C)CO [Compound 1306, (2R)-2,4-dihydroxy-N-[2-[(2-[[(5S)-5-hydroxy-3-oxohexanoyl]sulfanyl]ethyl)carbamoyl]ethyl]-3,3-dimethylbutanamide] gave an inhibition at 50 µM [3] of no less than 10% and an activation at 10 µM [1] of no less than 10%.
CC(=O)SCCNC(=O)CCNC(=O)[C@H](O)C(C)(C)COC(=O)[C@@H](N)Cc1ccc(O)c(O)c1 [Compound 498, (3R)-3-[(2-[[2-(acetylsulfanyl)ethyl]carbamoyl]ethyl)carbamoyl]-3-hydroxy-2,2-dimethylpropyl (2S)-2-amino-3-(3,4-dihydroxyphenyl)propanoate] was tested, and the “% decrease in TIMP-2” value ([2]; 1 uM) was no less than 10%, the “% increase in M-CSF” value ([2]; 10 uM) was no less than 10% and the “% increase in SRB” value ([2]; 10 uM) was no less than 10%. The “% decrease in Collagen I” value [2, 5] was no less than 10% and the inhibition at 10 µM [2, 6] was no less than 10%.
With CC(=O)OCC(C)(C)[C@@H](O)C(=O)NCCC(=O)NCCSC(=O)CC(=O)CCC(=O)O [Compound 140, 6-[(2-[3-[(2R)-4-(acetyloxy)-2-hydroxy-3,3-dimethylbutanamido]propanamido]ethyl)sulfanyl]-4,6-dioxohexanoic acid] the inhibition at 50 µM [3] was no less than 10% and the activation at 10 µM [1] was no less than 10%.
For CC(=O)OCC(C)(C)[C@@H](OC(C)=O)C(=O)NCCC(=O)NCCSC(C)=O [Compound 1264, (1R)-3-(acetyloxy)-1-[(2-[[2-(acetylsulfanyl)ethyl]carbamoyl]ethyl)carbamoyl]-2,2-dimethylpropyl acetate], the “% increase in PAI-I” value ([2]; 1 uM) was no less than 10%, the “% increase in TIMP-2” value ([2]; 10 uM) was no less than 10% and the activation at 10 µM [2, 4] was no less than 10%. The activation at 10 µM [1] was no less than 10%.
With CC(C)(COC(=O)OCC[N+](C)(C)C)[C@@H](O)C(=O)NCCC(=O)NCCSC(=O)CCC(=O)O [Compound 116, [2-([[(3R)-3-[[2-([2-[(3-carboxypropanoyl)sulfanyl]ethyl]carbamoyl)ethyl]carbamoyl]-3-hydroxy-2,2-dimethylpropoxy]carbonyl]oxy)ethyl]trimethylazanium] the “% decrease in Collagen I” value [2, 5] was no less than 10%.
